Among the data in patent US20250115583A1, “BICYCLIC INDAZOLE GLUCOCORTICOID RECEPTOR ANTAGONISTS” (Corcept Therapeutics Incorporated, priority 2021, published 2025) are Ki values, retold here.

This experiment deals with glucocorticoid receptor (Homo sapiens (Human), UniProt P04150). As to the kind of experiment: HepG2 TAT assay: inhibition of dexamethasone-induced tyrosine aminotransferase (TAT) activity. Conditions: HepG2 cells, challenge of 100 nM dexamethasone, 18-24 hr; IC50 converted to Ki by Cheng and Prusoff equation. In kind it is cell-based. In a few lines: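 Cells lysed 15 min at 4 °C; TAT enzyme reaction 2 h at 37 °C, stopped with KOH, 30 min further at 37 °C. Inhibition fitted to 4-parameter logistic.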
glucocorticoid receptor, sequence (P04150 whole entry): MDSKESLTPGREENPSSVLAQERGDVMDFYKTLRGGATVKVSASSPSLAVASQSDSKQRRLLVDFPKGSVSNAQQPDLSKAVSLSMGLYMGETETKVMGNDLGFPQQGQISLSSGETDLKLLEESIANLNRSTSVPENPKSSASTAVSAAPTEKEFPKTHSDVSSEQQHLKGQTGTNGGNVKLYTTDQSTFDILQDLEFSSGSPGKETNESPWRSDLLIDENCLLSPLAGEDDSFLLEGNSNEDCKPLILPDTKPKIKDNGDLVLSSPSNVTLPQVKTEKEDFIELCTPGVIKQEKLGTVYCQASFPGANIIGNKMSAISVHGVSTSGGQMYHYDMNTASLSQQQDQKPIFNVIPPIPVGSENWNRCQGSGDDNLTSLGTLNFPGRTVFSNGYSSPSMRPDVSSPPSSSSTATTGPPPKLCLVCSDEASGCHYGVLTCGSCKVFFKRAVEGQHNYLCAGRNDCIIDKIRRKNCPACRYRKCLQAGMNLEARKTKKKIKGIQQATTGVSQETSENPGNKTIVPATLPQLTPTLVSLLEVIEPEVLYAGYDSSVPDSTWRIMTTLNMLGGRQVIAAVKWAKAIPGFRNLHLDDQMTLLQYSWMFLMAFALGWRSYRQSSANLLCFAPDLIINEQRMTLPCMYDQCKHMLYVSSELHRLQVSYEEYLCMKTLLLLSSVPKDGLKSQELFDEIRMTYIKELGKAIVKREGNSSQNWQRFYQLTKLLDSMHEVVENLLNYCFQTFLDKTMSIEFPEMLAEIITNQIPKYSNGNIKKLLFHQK
The compound `Cc1cc2c(cnn2-c2ccc(F)cc2)cc1C12CN(S(=O)(=O)c3cnn(C)n3)CC1C2CO` (stereo not shown) [Example 47, (1-(1-(4-fluorophenyl)-6-methyl-1H-indazol-5-yl)-3-((2-methyl-2H-1,2,3-triazol-4-yl)sulfonyl)-3-azabicyclo[3.1.0]hexan-6-yl)methanol] showed an inhibitory constant (Ki) of 270 nM.

Compound `Cc1cc2c(cnn2-c2ccc(F)cc2)cc1C12CN(S(=O)(=O)c3cnn(C)n3)CC1C2COc1ccc(Cl)cc1` (single isomer, unassigned) [Example 52, 5-(6-((4-chlorophenoxy)methyl)-3-((2-methyl-2H-1,2,3-triazol-4-yl)sulfonyl)-3-azabicyclo[3.1.0]hexan-1-yl)-1-(4-fluorophenyl)-6-methyl-1H-indazole] had a Ki of 380 nM. This Ki and that of the compound before are within 1.5-fold of each other. The compound `Cc1cc2c(cnn2-c2ccc(F)cc2)cc1[C@]12CN(S(=O)(=O)c3cnn(C)n3)C[C@H]1[C@@H]2C(=O)N(C)c1ccccc1` [Example 64] yielded an inhibition constant Ki of 130 nM. The value for `COC1CCN(S(=O)(=O)N2C[C@@H]3[C@@H](c4ccccc4)[C@]3(c3cc4cnn(-c5ccc(F)cc5)c4cc3C)C2)CC1` [Example 109] was 13 nM.

In turn, `Cc1cc2c(cnn2-c2ccc(F)cc2)cc1[C@]12CN(S(=O)(=O)c3cnn(C)n3)C[C@H]1[C@@H]2C(=O)NC1CCC1` [Example 60] showed a Ki of 200 nM. This Ki lies about 15-fold higher than the previous one. The figure for `Cc1cc2c(cnn2-c2ccc(F)cc2)cc1[C@]12CN(S(=O)(=O)c3cnn(C)n3)C[C@H]1[C@@H]2C(=O)Nc1ccc(F)cn1` (stereo in doubt) [Example 57, 1-(1-(4-fluorophenyl)-6-methyl-1H-indazol-5-yl)-N-(5-fluoropyridin-2-yl)-3-((2-methyl-2H-1,2,3-triazol-4-yl)sulfonyl)-3-azabicyclo[3.1.0]hexane-6-carboxamide] is 190 nM; for `Cc1cc2c(cnn2-c2ccc(F)cc2)cc1[C@@]12CN(C(=O)c3ncccc3C#N)C[C@@H]1[C@H]2c1ccccc1` (single isomer, unassigned) [Example 155, 2-(1-(1-(4-fluorophenyl)-6-methyl-1H-indazol-5-yl)-6-phenyl-3-azabicyclo[3.1.0]hexane-3-carbonyl)nicotinonitrile] it is 19 nM; for `Cc1cc2c(cnn2-c2ccc(F)cc2)cc1[C@@]12CN(S(=O)(=O)c3cnn(C)n3)C[C@@H]1[C@H]2Cn1cccn1` (stereo in doubt) [Example 132, 5-(6-((1H-pyrazol-1-yl)methyl)-3-((2-methyl-2H-1,2,3-triazol-4-yl)sulfonyl)-3-azabicyclo[3.1.0]hexan-1-yl)-1-(4-fluorophenyl)-6-methyl-1H-indazole] it is 350 nM. The value for `CCn1ncc(S(=O)(=O)N2CC3CC(OC)(c4ccccc4)CC3(c3cc4cnn(-c5ccc(F)cc5)c4cc3C)C2)n1` (stereo not shown) [Example 26] was 53 nM. The figure for `Cc1cc2c(cnn2-c2ccc(F)cc2)cc1[C@@]12CN(Cc3ccccn3)C[C@@H]1[C@H]2c1ccccc1` (stereo in doubt) [Example 179, 1-(4-fluorophenyl)-6-methyl-5-(6-phenyl-3-(pyridin-2-ylmethyl)-3-azabicyclo[3.1.0]hexan-1-yl)-1H-indazole] is 48 nM. For `Cc1cc2c(cnn2-c2ccc(F)cc2)cc1[C@@]12CN(C(=O)c3ccccc3)C[C@@H]1[C@]2(C)c1ccccc1` (stereo in doubt) [Example 182, (1-(1-(4-fluorophenyl)-6-methyl-1H-indazol-5-yl)-6-methyl-6-phenyl-3-azabicyclo[3.1.0]hexan-3-yl)(phenyl)methanone], the inhibitory constant (Ki) came to 180 nM. The figure for `Cc1cc2c(cnn2-c2ccc(F)cc2)cc1[C@]12CN(S(=O)(=O)C3CCOCC3)C[C@H]1[C@@H]2c1ccccc1` [Example 88] is 47 nM. The figure for `Cc1cc2c(cnn2-c2ccc(F)cc2)cc1[C@@]12CN(S(=O)(=O)C(C)C)C[C@@H]1[C@H]2c1ccccc1` [Example 101] is 41 nM. As for `Cc1cc2c(cnn2-c2ccc(F)cc2)cc1[C@@]12CN(C(=O)c3cccc(C(F)F)c3)C[C@@H]1[C@H]2c1ccccc1` (stereo in doubt) [Example 143, (3-(difluoromethyl)phenyl)(1-(1-(4-fluorophenyl)-6-methyl-1H-indazol-5-yl)-6-phenyl-3-azabicyclo[3.1.0]hexan-3-yl)methanone], the inhibitory constant (Ki) is 25 nM. Take `Cc1nc(C(=O)N2C[C@@H]3[C@@H](c4ccccc4)[C@]3(c3cc4cnn(-c5ccc(F)cc5)c4cc3C)C2)cs1` (single isomer, unassigned) [Example 153, (1-(1-(4-fluorophenyl)-6-methyl-1H-indazol-5-yl)-6-phenyl-3-azabicyclo[3.1.0]hexan-3-yl)(2-methylthiazol-4-yl)methanone]: the Ki turned out to be 38 nM. The value for `Cc1cc2c(cnn2-c2ccc(F)cc2)cc1[C@@]12CN(S(=O)(=O)NCC(C)C)C[C@@H]1[C@H]2c1ccccc1` [Example 100] was 82 nM.

A word on the Ki: it is the equilibrium dissociation constant of an inhibitor or competing ligand from its target. Low readings indicate higher affinity, high ones lower affinity.
